The values below come from ChEMBL document CHEMBL2074351, “Characterization of the major metabolites of verapamil as substrates and inhibitors of P-glycoprotein” (J Pharmacol Exp Ther, 2000).

The target in the first series is T1, ATP-dependent translocase ABCB1 (Homo sapiens, UniProt P08183). Nature of the series: TP_TRANSPORTER: inhibition of Digoxin transepithelial transport (basal to apical) (Digoxin: 5 uM) in Caco-2 cells. Type of series: functional, cell-based.
T1 sequence (P08183 whole entry): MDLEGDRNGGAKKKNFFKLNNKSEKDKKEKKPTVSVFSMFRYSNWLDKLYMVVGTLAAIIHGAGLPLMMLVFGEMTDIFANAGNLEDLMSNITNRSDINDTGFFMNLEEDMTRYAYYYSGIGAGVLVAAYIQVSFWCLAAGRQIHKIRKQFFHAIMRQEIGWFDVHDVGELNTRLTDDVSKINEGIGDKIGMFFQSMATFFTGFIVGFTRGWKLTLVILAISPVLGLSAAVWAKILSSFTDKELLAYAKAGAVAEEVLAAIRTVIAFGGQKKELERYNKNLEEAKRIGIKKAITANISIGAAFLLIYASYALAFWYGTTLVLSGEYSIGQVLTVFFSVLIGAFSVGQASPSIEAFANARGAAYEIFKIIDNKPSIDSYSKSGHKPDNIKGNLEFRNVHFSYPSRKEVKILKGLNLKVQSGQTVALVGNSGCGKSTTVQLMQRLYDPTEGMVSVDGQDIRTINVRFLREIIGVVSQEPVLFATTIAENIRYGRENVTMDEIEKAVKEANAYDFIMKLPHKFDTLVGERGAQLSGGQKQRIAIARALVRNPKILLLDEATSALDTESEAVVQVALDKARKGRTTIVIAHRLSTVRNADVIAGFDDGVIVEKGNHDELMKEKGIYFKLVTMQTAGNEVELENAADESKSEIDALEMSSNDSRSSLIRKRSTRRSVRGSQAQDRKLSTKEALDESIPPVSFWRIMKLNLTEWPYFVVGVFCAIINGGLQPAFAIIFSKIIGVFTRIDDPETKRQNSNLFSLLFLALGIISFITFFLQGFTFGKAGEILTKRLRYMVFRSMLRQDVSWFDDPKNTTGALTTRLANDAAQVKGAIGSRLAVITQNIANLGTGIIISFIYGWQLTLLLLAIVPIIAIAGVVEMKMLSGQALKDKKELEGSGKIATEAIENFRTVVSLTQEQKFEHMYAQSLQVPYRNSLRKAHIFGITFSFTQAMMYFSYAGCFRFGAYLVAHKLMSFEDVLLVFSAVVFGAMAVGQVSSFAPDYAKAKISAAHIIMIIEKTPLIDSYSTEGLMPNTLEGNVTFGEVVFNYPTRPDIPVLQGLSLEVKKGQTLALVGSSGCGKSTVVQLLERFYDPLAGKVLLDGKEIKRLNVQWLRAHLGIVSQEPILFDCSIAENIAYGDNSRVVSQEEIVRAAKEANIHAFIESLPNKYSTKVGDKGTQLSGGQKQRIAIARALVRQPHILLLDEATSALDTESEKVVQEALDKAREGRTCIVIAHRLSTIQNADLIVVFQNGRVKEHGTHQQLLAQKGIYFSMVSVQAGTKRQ
Details: not given
For orientation: Caco-2 monolayers are a common model of the intestinal barrier.
By IC50 is commonly meant the concentration that gives 50% inhibition. A low value points to greater potency. In turn, `COc1ccc([C@@](C#N)(CCCN(C)CCc2ccc(OC)c(OC)c2)C(C)C)cc1O` returned an IC50 of 1600 nM.

For `COc1ccc(CCNCCCC(C#N)(c2ccc(OC)c(OC)c2)C(C)C)cc1OC` (stereo unspecified) [NORVERAPAMIL], the IC50 was 300 nM.

Another series addresses T1, ATP-dependent translocase ABCB1. Nature of the series: TP_TRANSPORTER: transepithelial transport (basal to apical) in MDR1-expressing LLC-PK1 cells. The class given is functional, cell-based. Particulars: pig.
For `CNCCCC(C#N)(c1ccc(OC)c(OC)c1)C(C)C` (stereo unspecified), the Activity result is “substrate [+]”.

Regarding `COc1ccc([C@@](C#N)(CCCN)C(C)C)cc1OC`, the Activity result is “substrate [+]”.

For `COc1ccc(CCNCCCC(C#N)(c2ccc(OC)c(OC)c2)C(C)C)cc1OC` (stereo unspecified) [NORVERAPAMIL], the Activity result is “substrate [+]”.

`COc1ccc(CCN(C)CCCC(C#N)(c2ccc(OC)c(OC)c2)C(C)C)cc1OC` (stereo unspecified) [VERAPAMIL]: the Activity result was “substrate [+]”.
